The values that follow come from patent US20190241573A1, “ISOQUINOLINE DERIVATIVES AS PERK INHIBITORS” (GlaxoSmithKline Intellectual Property Development Limited, priority 2016, published 2019).

The test system of one assay is prion infected mice. The note with it: cited from earlier work.
The target of another assay is T1, GST-PERK enzyme (Homo sapiens, UniProt Q9NZJ5).
T1 sequence (Q9NZJ5 30-1116): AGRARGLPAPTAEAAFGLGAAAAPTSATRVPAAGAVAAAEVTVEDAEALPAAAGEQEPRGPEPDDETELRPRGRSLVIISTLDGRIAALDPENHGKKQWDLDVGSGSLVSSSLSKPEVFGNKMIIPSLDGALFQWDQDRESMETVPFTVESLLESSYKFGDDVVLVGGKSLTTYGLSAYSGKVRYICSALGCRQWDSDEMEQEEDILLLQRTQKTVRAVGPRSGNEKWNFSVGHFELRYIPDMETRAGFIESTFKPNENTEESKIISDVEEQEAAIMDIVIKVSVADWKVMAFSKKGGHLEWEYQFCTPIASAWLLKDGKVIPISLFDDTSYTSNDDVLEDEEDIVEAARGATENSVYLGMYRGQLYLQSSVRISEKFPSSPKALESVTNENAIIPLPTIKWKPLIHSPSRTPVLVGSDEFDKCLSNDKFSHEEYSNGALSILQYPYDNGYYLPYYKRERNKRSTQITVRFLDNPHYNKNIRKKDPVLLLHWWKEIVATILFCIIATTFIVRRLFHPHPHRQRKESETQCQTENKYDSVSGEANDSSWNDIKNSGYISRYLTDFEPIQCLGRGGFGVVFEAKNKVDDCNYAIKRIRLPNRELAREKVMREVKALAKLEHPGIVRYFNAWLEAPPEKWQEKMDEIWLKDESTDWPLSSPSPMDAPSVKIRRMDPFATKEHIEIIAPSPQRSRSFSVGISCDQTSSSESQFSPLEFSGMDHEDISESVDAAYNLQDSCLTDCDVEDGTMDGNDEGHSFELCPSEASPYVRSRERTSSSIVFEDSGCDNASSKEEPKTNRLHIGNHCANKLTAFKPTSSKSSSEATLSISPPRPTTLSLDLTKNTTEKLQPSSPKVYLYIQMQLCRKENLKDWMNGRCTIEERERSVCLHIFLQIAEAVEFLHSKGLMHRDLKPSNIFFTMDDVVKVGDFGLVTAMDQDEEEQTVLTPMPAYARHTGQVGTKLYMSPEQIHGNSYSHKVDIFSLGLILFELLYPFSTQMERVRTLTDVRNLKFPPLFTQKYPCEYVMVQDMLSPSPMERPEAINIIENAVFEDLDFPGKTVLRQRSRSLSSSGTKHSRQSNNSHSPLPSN
In words: PERK enzyme assay. The class given is biochemical. Conditions: biotin-eIF2α substrate, 60 minutes. The procedure: Example 61: PERK Enzyme Assay
Compounds of the invention were assayed for PERK enzyme inhibitory activity with modifications to previously reported conditions (Axten et al. J. Med. Chem., 2012, 55, 7193-7207). Briefly, various concentrations of compounds (maximum 1% DMSO) were dispensed into 384-well plates containing GST-PERK enzyme. ATP and biotin-elF2α were added and after 60 minutes the reaction was quenched. After 2 hrs, a fluorescence plate reader was used to measure inhibition and pIC50s were calculated. The activity of compound 1 was determined at an ATP concentration=5 μM. For compounds 2-20 the PERK activity was determined at ATP concentration=500 μM ATP.

The mark [1] stands for this setting: 500 μM ATP, read-out: average PERK Enzyme (500 μM ATP) pIC50 (converted).

Structures are written as SMILES. Like-named read-outs stand apart in the source and are kept apart here. Where only a bound is given, the exact number is not on record here.

For the compound `Cn1cc(-c2ccc3c(c2)CCN3C(=O)Cc2cccc(C(F)(F)F)c2)c2c(N)ncnc21` [GSK2606414, 7-methyl-5-(1-{[3-(trifluoromethyl)phenyl]acetyl}-2,3-dihydro-1H-indol-5-yl)-7H-pyrrolo[2,3-d]pyrimidin-4-amine], the “neuroprotective effect and clinical signs of disease” value in the assay on prion infected mice was “provide a neuroprotective effect and prevent clinical signs of disease”.

Turning to `Cc1cc(C)cc(C(=O)c2cc3ccc(-c4cn(C)c5ncnc(N)c45)cc3cn2)c1` [Example 15, (7-(4-amino-7-methyl-7H-pyrrolo[2,3-d]pyrimidin-5-yl)isoquinolin-3-yl)(3,5-dimethylphenyl)methanone], the IC50 on GST-PERK enzyme (setting [1]) was above 3980 nM.

With `CCn1cc(-c2ccc3cc(Cc4cc(F)cc(F)c4)ncc3c2F)c2c(N)ncnc21` [Example 6, 5-(3-(3,5-difluorobenzyl)-8-fluoroisoquinolin-7-yl)-7-ethyl-7H-pyrrolo[2,3-d]pyrimidin-4-amine], on GST-PERK enzyme (setting [1]), the IC50 is 158 nM.

In the case of `Cn1cc(-c2ccc3cc(Cc4cccc(C(F)(F)F)c4)ncc3c2F)c2c(N)ncnc21` [Example 19, 5-(8-fluoro-3-(3-(trifluoromethyl)benzyl)isoquinolin-7-yl)-7-methyl-7H-pyrrolo[2,3-d]pyrimidin-4-amine], on GST-PERK enzyme (setting [1]), the IC50 was above 3980 nM.

In the case of `Nc1ncnc2c1c(-c1ccc3cc(Cc4cccc(Cl)c4F)ncc3c1F)cn2C1CC1` [Example 51, 5-(3-(3-chloro-2-fluorobenzyl)-8-fluoroisoquinolin-7-yl)-7-cyclopropyl-7H-pyrrolo[2,3-d]pyrimidin-4-amine], the IC50 on GST-PERK enzyme (setting [1]) was 3.16 nM.

In the case of `Nc1ncnc2c1c(-c1ccc3cc(Cc4cc(F)cc(F)c4)ncc3c1F)cn2CC(F)(F)F` [Example 23, 5-(3-(3,5-difluorobenzyl)-8-fluoroisoquinolin-7-yl)-7-(2,2,2-trifluoroethyl)-7H-pyrrolo[2,3-d]pyrimidin-4-amine], the IC50 on GST-PERK enzyme (setting [1]) was above 3980 nM.

Take `Nc1ncnc2c1c(-c1ccc3cc(Cc4cc(C(F)(F)F)ccc4F)ncc3c1F)cn2C1CC1` [Example 41, 7-cyclopropyl-5-(8-fluoro-3-(2-fluoro-5-(trifluoromethyl)benzyl)isoquinolin-7-yl)-7H-pyrrolo[2,3-d]pyrimidin-4-amine]: the IC50 on GST-PERK enzyme (setting [1]) was 100 nM.

As for `Cc1ccccc1Cc1cc2ccc(-c3cn(C4CC4)c4ncnc(N)c34)c(F)c2cn1` [Example 38, 7-cyclopropyl-5-(8-fluoro-3-(2-methylbenzyl)isoquinolin-7-yl)-7H-pyrrolo[2,3-d]pyrimidin-4-amine], the IC50 at GST-PERK enzyme (setting [1]) was 12.6 nM.

On to `Cc1nc(N)c2c(-c3ccc4cc(Cc5cc(F)cc(F)c5)ncc4c3F)cn(C3CC3)c2n1` [Example 28, 7-cyclopropyl-5-(3-(3,5-difluorobenzyl)-8-fluoroisoquinolin-7-yl)-2-methyl-7H-pyrrolo[2,3-d]pyrimidin-4-amine], for which the IC50 on GST-PERK enzyme (setting [1]) was 2510 nM.

With `CN(C)CCn1cc(-c2ccc3cc(Cc4cc(F)cc(F)c4)ncc3c2F)c2c(N)ncnc21` [Example 47, 5-(3-(3,5-difluorobenzyl)-8-fluoroisoquinolin-7-yl)-7-(2-(dimethylamino)ethyl)-7H-pyrrolo[2,3-d]pyrimidin-4-amine], the IC50 on GST-PERK enzyme (setting [1]) is 1580 nM.

For the compound `Cn1cc(-c2ccc3cc(Cc4cc(F)cc(F)c4)ncc3c2F)c2c(N)ncnc21` [Example 4, 5-(3-(3,5-Difluorobenzyl)-8-fluoroisoquinolin-7-yl)-7-methyl-7H-pyrrolo[2,3-d]pyrimidin-4-amine], on GST-PERK enzyme (setting [1]), the IC50 was 251 nM.

`Cn1cc(-c2ccc3cc(Cc4ccccc4)ncc3c2)c2c(N)ncnc21` [Example 1, 5-(3-Benzylisoquinolin-7-yl)-7-methyl-7H-pyrrolo[2,3-d]pyrimidin-4-amine]: on GST-PERK enzyme (5 μM ATP, read-out: average PERK Enzyme (5 μM ATP) pIC50 (converted)), the IC50 was 15.8 nM.

On to `Nc1ncnn2ccc(-c3ccc4cc(Cc5cc(F)cc(F)c5)ncc4c3F)c12` [Example 58, 5-(3-(3,5-difluorobenzyl)-8-fluoroisoquinolin-7-yl)pyrrolo[2,1-f][1,2,4]triazin-4-amine], for which the IC50 on GST-PERK enzyme (setting [1]) is above 3980 nM.

For the compound `Cn1cc(-c2ccc3cc(Cc4cc(F)cc(C(F)(F)F)c4)ncc3c2F)c2c(N)ncnc21` [Example 18, 5-(8-fluoro-3-(3-fluoro-5-(trifluoromethyl)benzyl)isoquinolin-7-yl)-7-methyl-7H-pyrrolo[2,3-d]pyrimidin-4-amine], the IC50 on GST-PERK enzyme (setting [1]) was above 3980 nM.

As to `Cn1cc(-c2ccc3cc(Cc4cc(F)ccc4F)ncc3c2F)c2c(N)ncnc21` [Example 17, 5-(3-(2,5-difluorobenzyl)-8-fluoroisoquinolin-7-yl)-7-methyl-7H-pyrrolo[2,3-d]pyrimidin-4-amine], the IC50 on GST-PERK enzyme (setting [1]) is 1000 nM.

Turning to `Cc1nc(N)c2c(-c3ccc4cc(Cc5cc(F)cc(F)c5)ncc4c3F)cn(C)c2n1` [Example 25, 5-(3-(3,5-difluorobenzyl)-8-fluoroisoquinolin-7-yl)-2,7-dimethyl-7H-pyrrolo[2,3-d]pyrimidin-4-amine], the IC50 at GST-PERK enzyme (setting [1]) is above 3980 nM.

Regarding `Nc1ncnc2c1c(-c1ccc3cc(Cc4cncc(F)c4)ncc3c1F)cn2C1CC1` [Example 53, 7-cyclopropyl-5-(8-fluoro-3-((5-fluoropyridin-3-yl)methyl)isoquinolin-7-yl)-7H-pyrrolo[2,3-d]pyrimidin-4-amine], the IC50 on GST-PERK enzyme (setting [1]) was 631 nM.

With `Nc1ncnc2c1c(-c1ccc3cc(Cc4cc(F)cc(F)c4)ncc3c1F)nn2C1CC1` [Example 29, 1-cyclopropyl-3-(3-(3,5-difluorobenzyl)-8-fluoroisoquinolin-7-yl)-1H-pyrazolo[3,4-d]pyrimidin-4-amine], at GST-PERK enzyme (setting [1]), the IC50 was above 3980 nM.
